According to patent US20140284001A1, “SYSTEMS AND METHODS FOR SPRAY DRYING IN MICROFLUIDIC AND OTHER SYSTEMS” (President and Fellows Of Harvard College, priority 2012, published 2014):

Assay: size of spray dried nanoparticles by scanning electron microscopy (SEM)
Assay type: physicochemical
Settings: dissolved in ethanol, spray dried with microfluidic nebulator, flow-focusing nebulization unit, four air inlets, 2.8 bar, 1 ml/h, collected 10 cm from outlet

average nanoparticle diameters: 24+/−8 nm
Compound: Clc1ccccc1C(c1ccccc1)(c1ccccc1)n1ccnc1 [clotrimazole]
